Literature values, collected in patent US20250356984A1 (priority 2022, published 2025).

Conditions: in vivo

With `CC(C)c1cccc(C(C)C)c1O` [propofol] as the compound, how does the “time until target blood concentration is achieved” value read?
The value was “under a minute”.
